Results reported in PMC7735731, “Application of Magnetic Core–Shell Imprinted Nanoconjugates for the Analysis of Hordenine in Human Plasma-Preliminary Data on Pharmacokinetic Study after Oral Administration” (Journal of Agricultural and Food Chemistry, 2020).
Values after ≈ are worked out from the molar mass of the structure shown. Values joined by “and” are separate entries in the source; they are usually repeats but may differ in a detail not shown here. Equal values may be shown once.

Key:
[1] = Pharmacokinetic profile of hordenine in plasma after alcohol free beer consumption by one volunteer; assay type: in vivo, human
Description: It is known that hordenine levels in plasma after beer consumption are low.[10] Thus, to verify the newly proposed analytical method as well as to reveal its applicability, the evaluation of hordenine pharmacokinetics profiles after beer consumption was also investigated. The results are presented in Supporting Information Section S2.
Determination of pharmacokinetic profile after beer consumption
In order to reveal the applicability of new analytical method, the comparative studies of hordenine pharmacokinetic after alcohol free beer consumption was performed. Firstly we confirmed the presence of hordenine in the beverage since no data on hordenine content in alcohol free beer exist. Then the volunteer consumed 0.5 L of beer within 5 min. The blood was collected 10 min., 20 min., 30 min., 45 min., 1 h, 2 h, 4 h, and 6 h after the beginning of beer […]
Regarding alcohol free beer the hordenine content was 1.3 mg/L for Karmi Classic, 1.2 mg/L for Żywiec, 2.5 mg/L for Heineken zero, 2.3 mg/L for Lech. Thus, for further experiments Heineken zero was selected. […]
distribution Vz/F 1810 L. We confirmed the results of Sommer et al. (2020) that the Cmax is too low to directly interact with D2 receptors. One of the explanation of the lower Cl/F and Vz/F than obtained for supplement can be higher bioavailability of hordenine form beer than supplements and/or non linear pharmacokinetics. Thus, further study are needed.
Figure A. Mean plasma concentration-time profile of hordenine after beer consumption by one

[2] = weak base; source not given; cited from earlier work
[3] = parameters: method as in PMID 25880244; conditions: rats, cited from earlier work
[4] = cited from earlier work
[5] = Simple allometric scaling of rat t1/2 to human; conditions: from rat t1/2 4.6 ± 1.6 h with t1/2(Human) ∼ 4t1/2(Rat)
Description: However, further studies are required.

[6] = Pharmacokinetic study in healthy volunteers after oral administration of hordenine-rich dietary supplement (plasma, mag-MIP d-SPE, LC-MS/MS); assay type: in vivo, human
Protocol: Quantitative analysis was performed using an Agilent 1260 Infinity system (Agilent Technologies, Santa Clara, CA, United States, https://www.agilent.com), equipped with a degasser, an autosampler, and a binary pump coupled to a QTRAP 4000 hybrid triple quadrupole/linear ion trap mass spectrometer (AB Sciex, Framingham, MA, United States, https://sciex.com). The turbo ion spray source was operated in positive mode. The curtain gas, ion source gas 1, ion source gas 2, and collision gas (all high-purity nitrogen) were set at 345, 207, 276 kPa, and “high” instrument units (4.6 × 10^–5 Torr), respectively. The ion spray voltage and source temperature were 5000 V and 600 °C, respectively. The target compounds were analyzed in multiple reaction monitoring mode. The quantitative multiple reaction monitoring transitions, declustering potential (DP) and collision energy (CE) for hordenine and hordenine-d6 were (m/z) 166 > 121 (DP = 61 V, CE = 21 V) and 172 > 121 (DP = 66 V, CE = 19 V), respectively. […] The column was maintained at 40 °C at the flow rate of 0.5 mL/min. The mobile phases consisted of 20 mM aqueous ammonium acetate as eluent A and acetonitrile with 0.2% formic acid as eluent B. The gradient (% B) was as follows: 0 min 10%, 1 min 10%, 3 min 95%, and 5 min 95%. The reequilibration of the column to the initial conditions lasted 1.5 min.
For the optimization of the d-SPE process, a mass of 5 mg of mag-MIP was transferred to an Eppendorf tube together with a volume of 300 μL of untreated plasma sample (or in the optimization process: sample diluted with water or sample pretreated with methanol (1:1, v/v)). A sample of plasma pretreated with methanol was centrifuged (10 000g, 5 min) prior to loading to mag-MIP together with 30 μL of IS (c = 50 μg/L). Next, the tube was put on the vortex to provide contact time with the sorbent for 5 min (in the optimization of loading time, the step lasted 5, 15, 30, or 60 min). Then, the supernatant, separated from the sorbent by an external magnetic field, was discarded and the washing step was carried out by applying water, 300 μL of ultrapure water for 0.5 min on the vortex (or in the optimization process, methanol–water 85:15 v/v). The supernatant was removed in the same manner as described above. Finally, the elution took place by adding 500 μL of 5% ammonium hydroxide in methanol. The elution time was set for 5 min (in the optimization process, the step lasted 5, 15, 30, or 60 min). The elution fraction was separated from the sorbent by the application of an external magnetic field. In each optimized step, the recoveries of hordenine were analyzed. The eluate was evaporated to dryness (40 °C, 5 min), reconstituted in a volume of 70 μL of 20% aqueous methanol, and an aliquot of 10 μL was injected into the LC–MS/MS. Each experiment was performed in triplicate. The recovery was calculated by comparing the mean area response of plasma sample spiked before and after extraction.
Three healthy volunteers (men, aged 25–30 years) were enrolled in this study after obtaining written informed consent. All participants were nonsmokers with body weight no less than 50 kg and body mass index 25.7 ± 3.7 kg/m^2. Their body weights were 80 kg (two volunteers) and 105 kg (one volunteer). Subjects neither consumed alcohol nor received any medication for 2 weeks prior to the start of the study. Hordenine was administered orally in the morning with a dose of 100 mg (in starch capsules) after overnight fasting. Plasma samples of approximately 2 mL were collected (in vials containing di-potassium ethylene diaminetetraacetic acid as an anticoagulant) before and at 20, 30, 45, 60, 75, 90, 120, 180, and 240 min post-dose. After collection, plasma samples were centrifuged at 2000g for 15 min at room temperature and plasma samples were analyzed. […]

[7] = four volunteers, 1 L of beer with hordenine content 6.30 ± 0.19 mg/L; cited from earlier work
[8] = Stability of the analyte in the biological matrix (human plasma) and the extract; assay type: in vitro ADME; conditions: for stability in extract in the autosampler: 48 h, 4 °C; for stability after short-term storage at room temperature / stability after freeze–thaw cycles: human plasma; for stability after short-term storage at room temperature: 4 h, 21 ± 2 °C; for stability after freeze–thaw cycles: three cycles at −20 °C storage, 25 °C thawing
Protocol: Selectivity was evaluated using six blank plasma samples, which were evaluated for interference from the matrix components in the determination of hordenine. The accuracy and precision of the method were determined within runs (n = 5) and between runs (n = 15, five replicate samples on three separate runs) using quality control (QC) samples (0.1, 25, and 40 μg/L). Accuracy was expressed as percent relative error of the spiked nominal value, whereas precision was expressed as relative standard deviation (RSD). The linearity range was set between 0.05 and 50 μg/L. Eight point calibration lines (n = 3) were constructed by plotting peak area ratios of each targeted analyte to an area of IS versus the nominal concentration of the analyte. LLOQ was selected to give the signal at least five times higher than the signal of blank samples and satisfactory results of accuracy and precision. LLOQ, QCs, and calibration standards were prepared on blank plasma. The matrix effect was evaluated by analyzing low and high QCs using plasma from six different lots and included hemolyzed and hyperlipidemic plasma samples. Matrix factor (MF) was determined by calculating the ratio of the peak area in the presence of matrix (blank plasma spiked with the analyte post extraction) to the peak area in the absence of matrix (pure solution of the analyte). Additionally, the coefficient of variation (CV) of the IS-normalized MF (expressed as the MF of analyte divided by the MF of IS) was presented. All stability studies were performed at low and high QCs. The autosampler stability was determined after 48 h of extract storage in an autosampler (4 ± 0.5 °C). The freeze and thaw stabilities were determined in a process of three freeze–thaw cycles at −20 ± 2 °C storage temperature and 25 ± 0.5 °C thawing temperature, at least 12 h after freezing. The short-term stability was determined after 4 h of storage at room temperature, 21 ± 2 °C. Carryover was studied by injecting blank plasma sample after calibration standard at 40 μg/L

dopamine D2 receptor = molecular target: dopamine D2 receptor; parameters: method as in PMID 28281694; conditions: cited from earlier work
[9] = human plasma, single oral dose 100 mg hordenine, three healthy volunteers, mean
[10] = male, human, plasma, single oral dose 100 mg hordenine, three healthy volunteers, mean

SMILES: CN(C)CCc1ccc(O)cc1 [hordenine, 4-(2-dimethylaminoethyl)phenol]
- apparent oral clearance (Cl/F) ([1]; 0.5 L alcohol free beer (hordenine 2.5 mg/L)): 2320 L/h
- time to reach Cmax ([1]; 0.5 L alcohol free beer, from the beginning of beer consumption): 25 min
- Cmax ([1]; human, plasma, oral, 1.25 mg, 0.5 L alcohol free beer (Heineken zero, hordenine 2.5 mg/L)): 0.4 ng/mL
- Vd/F ([1]; human, plasma, oral, 1.25 mg, 0.5 L alcohol free beer (hordenine 2.5 mg/L), read-out: volume of distribution Vz/F): 1810 L
- pKa of the strongest bases [2]: 9.19
- t1/2 (hordenine elimination) ([3]; oral administration, dose of 15 mg/kg): 4.6 ± 1.6 h
- bioavailability [3]: 66.2%
- blood–brain barrier crossing [4]: can cross the blood–brain barrier
- estimated t1/2(Human) by allometric scaling [5]: 1.15 ± 0.4 h
- AUCt [6, 9]: 1390 µg·min/L
- AUCt norm (body weight normalized) [6, 9]: 16.5 µg·min/L/kg
- AUC∞ [6, 9]: 1440 µg·min/L
- AUC∞ norm (body weight normalized) [6, 9]: 17.1 µg·min/L/kg
- concentration at 1 h ([6]; male, human, in vivo, plasma collected at 1 h after administration of 100 mg of hordenine, read-out: calculated concentration in test plasma): 8.7 ng/mL
- Cmax [6, 10]: 16.4 ng/mL
- MRT inf [6, 10]: 1.88 h
- MRT last [6, 10]: 1.7 h
- Tmax [6, 10]: 1.08 h
- CL/F ([6]; male, human, plasma, single oral dose 100 mg hordenine, three healthy volunteers, mean, read-out: Cl/Fnorm (body weight normalized) (converted)): 850 mL/min/kg
- Vd/F ([6]; male, human, plasma, single oral dose 100 mg hordenine, three healthy volunteers, mean, read-out: Vz/F (apparent distribution volume)): 6000 L
- Vd/F ([6]; male, human, plasma, single oral dose 100 mg hordenine, three healthy volunteers, mean, read-out: Vz/Fnorm (body weight normalized)): 66 L/kg
- half-life ([6]; male, human, plasma, single oral dose 100 mg hordenine, three healthy volunteers, mean, read-out: t1/2 (terminal half-life)): 0.9 h
- Cl/F (apparent plasma clearance) ([6]; single oral dose 100 mg hordenine, three healthy volunteers, mean): 4700 ± 1700 L/h and 4700 L/h
- maximum plasma concentrations [7]: 1.98 to 2.85 µg/L
- stability in extract in the autosampler ([8]; QC1 (0.1 μg/L)): 94%
- stability in extract in the autosampler ([8]; QC3 (40 μg/L)): 110%
- stability after short-term storage at room temperature ([8]; QC1 (0.1 μg/L)): 103%
- stability after freeze–thaw cycles ([8]; QC1 (0.1 μg/L)): 108%
- stability after short-term storage at room temperature ([8]; QC3 (40 μg/L)): 107%
- stability after freeze–thaw cycles ([8]; QC3 (40 μg/L)): 104%
- EC50 (dopamine D2 receptor): 0.61 µg/mL (≈ 3.69 µM)
